Active and inactive are the calls of the source. The calls are words filed in the database; no cut-off is given here.
Legend:
[1] = tested on: Hepatocyte; assay: Lipid lowering effect on PCN-induced lipid accumulation in mouse Primary hepatocyte assessed as decrease in ACC1 mRNA expression level at 3 to 30 uM by RT-qPCR analysis; assay type: functional, cell-based; conditions: dose 3-30 µM
[2] = molecular target: T1, Solute carrier family 13 member 2 (Homo sapiens) (UniProt Q13183); assay: Inhibition of NaDC1 (unknown origin) citrate transport activity
T1 sequence (whole entry): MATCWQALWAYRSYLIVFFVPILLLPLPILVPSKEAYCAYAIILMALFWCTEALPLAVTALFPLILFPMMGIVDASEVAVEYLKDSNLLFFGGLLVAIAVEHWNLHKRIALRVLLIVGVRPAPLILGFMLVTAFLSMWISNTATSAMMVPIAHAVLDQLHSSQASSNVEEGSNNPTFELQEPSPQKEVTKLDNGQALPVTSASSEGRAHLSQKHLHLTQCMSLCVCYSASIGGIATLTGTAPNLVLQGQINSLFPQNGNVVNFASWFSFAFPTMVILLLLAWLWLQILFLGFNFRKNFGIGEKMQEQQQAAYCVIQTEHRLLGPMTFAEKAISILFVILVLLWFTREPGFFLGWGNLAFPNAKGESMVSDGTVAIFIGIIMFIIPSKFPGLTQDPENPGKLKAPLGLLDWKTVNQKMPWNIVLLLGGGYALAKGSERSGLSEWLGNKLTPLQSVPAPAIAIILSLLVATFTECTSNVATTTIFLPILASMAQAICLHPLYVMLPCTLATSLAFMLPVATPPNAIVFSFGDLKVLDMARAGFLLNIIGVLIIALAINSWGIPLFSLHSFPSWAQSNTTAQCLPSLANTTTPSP

[3] = tested on: HepG2; assay: Lipid lowering effect on PCN-induced lipid accumulation in human HepG2 cells assessed as decrease in HMGCR mRNA expression level at 3 to 30 uM by RT-qPCR analysis; assay type: functional, cell-based; conditions: dose 3-30 µM
[4] = tested on: AML12; assay: Effect on SCL13A5 mRNA expression in PCN-induced mouse AML12 cells at 3 to 30 uM preincubated with compound for 30 mins followed by PCN addition and measured after 24 hrs by RT-qPCR analysis; assay type: functional, cell-based; conditions: dose 3-30 µM, time 24.5 hrs
[5] = tested on: Mus musculus; assay: Lipid lowering activity in starvation-induced hyperlipidemic male C57BL/6J mouse model assessed as downregulation of ACLY gene expression level starved for 48 hrs followed by oral administration of compound and measured after 2 hrs by RT-qPCR analysis; assay type: functional, organism-based; conditions: dose 10-30 mg/kg
[6] = tested on: Hepatocyte; assay: Lipid lowering effect on PCN-induced lipid accumulation in mouse Primary hepatocyte assessed as decrease in FASN mRNA expression level at 3 to 30 uM by RT-qPCR analysis; assay type: functional, cell-based; conditions: dose 3-30 µM
[7] = tested on: AML12; assay: Lipid lowering effect on PCN-induced lipid accumulation in mouse AML12 cells assessed as decrease in total cholesterol level preincubated with compound for 30 mins followed by PCN addition and measured after 24 hrs; assay type: functional, cell-based; conditions: dose 3-30 µM, time 24.5 hrs
[8] = tested on: AML12; assay: Effect on SCL13A5 mRNA expression in oleic acid and palmitic acid induced mouse AML12 cells at 3 to 30 uM by RT-qPCR analysis; assay type: functional, cell-based; conditions: dose 3-30 µM
[9] = tested on: HepG2; assay: Lipid lowering effect on oleic and palmitic acid induced lipid accumulation in human HepG2 cells assessed as decrease in intracellular total cholesterol level; assay type: functional, cell-based; conditions: dose 3-30 µM
[10] = tested on: Mus musculus; assay: Lipid lowering activity in PCN-induced hyperlipidemic male C57BL/6J mouse model assessed as decrease in ACC1 mRNA expression level preadministered intragastrically with compound for 15 to 30 mins followed by PCN administration and measured after 7 days by RT-qPCR analysis; assay type: functional, organism-based; conditions: dose 10-30 mg/kg, route ig, time 15-10110 min
[11] = tested on: AML12; assay: Lipid lowering effect on PCN-induced lipid accumulation in mouse AML12 cells assessed as decrease in FASN mRNA expression level at 3 to 30 uM preincubated with compound for 30 mins followed by PCN addition and measured after 24 hrs by RT-qPCR analysis; assay type: functional, cell-based; conditions: dose 3-30 µM, time 24.5 hrs
[12] = tested on: HepG2; assay: Lipid lowering effect on oleic and palmitic acid induced lipid accumulation in human HepG2 cells assessed as decrease in intracellular triglyceride level; assay type: functional, cell-based; conditions: dose 3-30 µM
[13] = tested on: Mus musculus; assay: Lipid lowering activity in PCN-induced hyperlipidemic male C57BL/6J mouse model assessed as decrease in HMGCR mRNA expression level preadministered intragastrically with compound for 15 to 30 mins followed by PCN administration and measured after 7 days by RT-qPCR analysis; assay type: functional, organism-based; conditions: dose 10-30 mg/kg, route ig, time 15-10110 min
[14] = tested on: Hepatocyte; assay: Lipid lowering effect on PCN-induced lipid accumulation in mouse Primary hepatocyte assessed as decrease in ACLY mRNA expression level at 3 to 30 uM by RT-qPCR analysis; assay type: functional, cell-based; conditions: dose 3-30 µM
[15] = tested on: AML12; assay: Downregulation of ACLY mRNA expression in oleic and palmitic acid induced mouse AML12 cells by RT-qPCR analysis; assay type: functional, cell-based; conditions: dose 3-30 µM
[16] = tested on: Mus musculus; assay: Lipid lowering activity in PCN-induced hyperlipidemic male C57BL/6J mouse model assessed as decrease in plasma total cholesterol level at 10 to 30 mg/kg, IG preadministered with compound for 15 to 30 mins followed by PCN administration and measured after 7 days; assay type: functional, organism-based; conditions: dose 10-30 mg/kg, time 15-10110 min
[17] = tested on: Mus musculus; assay: Effect on SLC13A5 mRNA expression in PCN-induced hyperlipidemic male C57BL/6J mouse model at 10 to 30 mg/kg, IG preadministered with compound for 15 to 30 mins followed by PCN administration and measured after 7 days by RT-qPCR analysis; assay type: functional, organism-based; conditions: dose 10-30 mg/kg, time 15-10110 min
[18] = tested on: AML12; assay: Effect on lipid accumulation in oleic and palmitic acid induced mouse AML12 cells assessed as decrease in triglyceride level; assay type: functional, cell-based; conditions: dose 3-30 µM
[19] = molecular target: Na(+)/citrate cotransporter (Homo sapiens) (UniProt Q86YT5); assay: Competitive inhibition of SLC13A5 (unknown origin) assessed as increase in Km with constant Vmax upto 50 uM
[20] = tested on: AML12; assay: Lipid lowering effect on PCN-induced lipid accumulation in mouse AML12 cells assessed as decrease in ACC1 mRNA expression level at 3 to 30 uM preincubated with compound for 30 mins followed by PCN addition and measured after 24 hrs by RT-qPCR analysis; assay type: functional, cell-based; conditions: dose 3-30 µM, time 24.5 hrs
[21] = tested on: HepG2; assay: Lipid lowering effect on PCN-induced lipid accumulation in human HepG2 cells assessed as decrease in ACLY mRNA expression level at 3 to 30 uM by RT-qPCR analysis; assay type: functional, cell-based; conditions: dose 3-30 µM
[22] = tested on: Mus musculus; assay: Lipid lowering activity in starvation-induced hyperlipidemic male C57BL/6J mouse model assessed as decrease in number of lipid droplets in liver starved for 48 hrs followed by intraperitoneal administration of compound and measured after 2 hrs by Hematoxylin and eosin staining based analysis; assay type: functional, organism-based; conditions: dose 10-30 mg/kg, route ip
[23] = tested on: Mus musculus; assay: Lipid lowering activity in starvation-induced hyperlipidemic male C57BL/6J mouse model assessed as downregulation of FASN gene expression level starved for 48 hrs followed by oral administration of compound and measured after 2 hrs by RT-qPCR analysis; assay type: functional, organism-based; conditions: dose 10-30 mg/kg
[24] = tested on: HepG2; assay: Lipid lowering effect on PCN-induced lipid accumulation in human HepG2 cells assessed as decrease in FASN mRNA expression level at 3 to 30 uM by RT-qPCR analysis; assay type: functional, cell-based; conditions: dose 3-30 µM
[25] = tested on: Mus musculus; assay: Lipid lowering activity in starvation-induced hyperlipidemic male C57BL/6J mouse model assessed as decrease in size of lipid droplets in liver starved for 48 hrs followed by intraperitoneal administration of compound and measured after 2 hrs by Hematoxylin and eosin staining based analysis; assay type: functional, organism-based; conditions: dose 10-30 mg/kg, route ip

Chain of Na(+)/citrate cotransporter (Homo sapiens) (Q86YT5 whole entry, looked up): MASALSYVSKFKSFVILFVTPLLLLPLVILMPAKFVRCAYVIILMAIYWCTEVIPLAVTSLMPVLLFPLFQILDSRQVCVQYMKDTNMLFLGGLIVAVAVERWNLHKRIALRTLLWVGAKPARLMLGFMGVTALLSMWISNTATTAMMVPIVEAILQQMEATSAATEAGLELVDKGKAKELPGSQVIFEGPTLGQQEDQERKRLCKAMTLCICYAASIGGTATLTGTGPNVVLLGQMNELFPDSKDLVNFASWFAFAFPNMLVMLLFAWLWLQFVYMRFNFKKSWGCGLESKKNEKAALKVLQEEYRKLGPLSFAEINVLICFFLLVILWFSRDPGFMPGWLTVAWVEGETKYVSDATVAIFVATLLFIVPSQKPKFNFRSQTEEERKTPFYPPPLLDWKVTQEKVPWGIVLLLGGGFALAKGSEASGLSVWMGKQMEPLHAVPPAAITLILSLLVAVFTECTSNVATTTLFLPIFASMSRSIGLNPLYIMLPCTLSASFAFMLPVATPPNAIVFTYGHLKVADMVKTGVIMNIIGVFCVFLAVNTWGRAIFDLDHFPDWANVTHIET

`O=C(O)CC(O)(CCc1ccc(-c2ccccc2)cc1)C(=O)O` (stereo not given) was tested, and the Activity [1] was “Active”, the inhibition [2] was “inactive” and the Activity [3] was “Active”. For the same molecule, the Activity [4] was “inactive”, the Activity [5] was “Dose-Dependent Effect” and the Activity [6] was “Active”. The Activity [7] was “Dose-Dependent Effect”, the Activity [8] was “inactive” and the Activity [9] was “Dose-Dependent Effect”. The Activity [10] was “Dose-Dependent Effect”, the Activity [11] was “Active” and the Activity [12] was “Dose-Dependent Effect”. For the same molecule, the Activity [13] was “Dose-Dependent Effect”, the Activity [14] was “Active” and the Activity [15] was “Dose-Dependent Effect”. The Activity [16] was “Active”, the Activity [17] was “inactive” and the Activity [18] was “Dose-Dependent Effect”. For the same molecule, the inhibition [19] was “Active”, the Activity [20] was “Active” and the Activity [21] was “Active”. For the same molecule, the Activity [22] was “Dose-Dependent Effect”, the Activity [23] was “Dose-Dependent Effect” and the Activity [24] was “Active”. The Activity [25] was “Dose-Dependent Effect”.
